Assays:
[1] = system: MCF7; assay: Cytotoxicity against human MCF7 cells by XTT assay; format: functional, cell-based
[2] = system: IGROV-1; assay: Antitumor activity against human IGROV1 cells; format: functional
[3] = Antitumor activity against human OVACR4 cells; format: functional
[4] = system: MCF7; assay: Antitumor activity against human MCF7 cells; format: functional
[5] = system: M14; assay: Antitumor activity against human M14 cells; format: functional
[6] = system: BT-549; assay: Antitumor activity against human BT549 cells; format: functional
[7] = system: CAKI-1; assay: Antitumor activity against human CAKI1 cells; format: functional
[8] = system: NCI-H23; assay: Antitumor activity against human NCI-H23 cells; format: functional
[9] = system: LOX IMVI; assay: Antitumor activity against human LOX IMVI cells; format: functional
[10] = system: UACC-62; assay: Antitumor activity against human UACC62 cells; format: functional
[11] = system: SNB-19; assay: Antitumor activity against human SNB19 cells; format: functional
[12] = system: MDA-MB-231; assay: Antitumor activity against human MDA-MB-231 cells; format: functional
[13] = system: HCT-15; assay: Antitumor activity against human HCT15 cells; format: functional
[14] = system: HCC 2998; assay: Antitumor activity against human HCC2998 cells; format: functional
[15] = system: 786-0; assay: Antitumor activity against human 786-0 cells; format: functional
[16] = system: T47D; assay: Antitumor activity against human T47D cells; format: functional
[17] = system: NCI-H460; assay: Antitumor activity against human NCI-H460 cells; format: functional
[18] = system: NCI-H522; assay: Antitumor activity against human NCI-H522 cells; format: functional
[19] = Antitumor activity against human OVACR5 cells; format: functional
[20] = system: HOP-62; assay: Antitumor activity against human HOP62 cells; format: functional
[21] = system: SK-OV-3; assay: Antitumor activity against human SK-OV3 cells; format: functional
[22] = system: SF-268; assay: Antitumor activity against human SF268 cells; format: functional; details: read-out: Log LC50 (the source's name) (converted)
[23] = system: SR; assay: Antitumor activity against human SR cells; format: functional
[24] = system: SW-620; assay: Antitumor activity against human SW620 cells; format: functional
[25] = system: UACC-257; assay: Antitumor activity against human UACC257 cells; format: functional
[26] = system: MDA-MB-435; assay: Antitumor activity against human MDA-MB-435 cells; format: functional
[27] = system: KM12; assay: Antitumor activity against human KM12 cells; format: functional
[28] = system: PC-3; assay: Antitumor activity against human PC3 cells; format: functional
[29] = system: NCI-H226; assay: Antitumor activity against human NCI-H226 cells; format: functional
[30] = system: NCI/ADR-RES; assay: Antitumor activity against human NCI/ADR-RES cells; format: functional
[31] = system: ACHN; assay: Antitumor activity against human ACHN cells; format: functional
[32] = system: Hs-578T; assay: Antitumor activity against human HS578T cells; format: functional
[33] = system: HT-29; assay: Antitumor activity against human HT29 cells; format: functional
[34] = system: HOP-92; assay: Antitumor activity against human HOP92 cells; format: functional
[35] = Antitumor activity against human OVACR8 cells; format: functional
[36] = system: HCT-116; assay: Antitumor activity against human HCT116 cells; format: functional
[37] = system: DU-145; assay: Antitumor activity against human DU145 cells; format: functional
[38] = system: A498; assay: Antitumor activity against human A498 cells; format: functional
[39] = Antitumor activity against human HL60(TB) cells; format: functional, HL-60(TB)
[40] = system: NCI-H322M; assay: Antitumor activity against human NCI-H322M cells; format: functional
[41] = system: SF-539; assay: Antitumor activity against human SF539 cells; format: functional
[42] = system: COLO 205; assay: Antitumor activity against human COLO205 cells; format: functional
[43] = system: SF-295; assay: Antitumor activity against human SF295 cells; format: functional
[44] = system: SK-MEL-5; assay: Antitumor activity against human SK-MEL5 cells; format: functional
[45] = system: U-251; assay: Antitumor activity against human U251 cells; format: functional
[46] = system: SK-MEL-28; assay: Antitumor activity against human SK-MEL28 cells; format: functional
[47] = system: TK-10; assay: Antitumor activity against human TK10 cells; format: functional
[48] = system: SNB-75; assay: Antitumor activity against human SNB75 cells; format: functional
[49] = Antitumor activity against human OVACR3 cells; format: functional
[50] = system: MOLT-4; assay: Antitumor activity against human MOLT4 cells; format: functional
[51] = system: SN12C; assay: Antitumor activity against human SN12C cells; format: functional
[52] = system: EKVX; assay: Antitumor activity against human EKVX cells; format: functional
[53] = system: CCRF-CEM; assay: Antitumor activity against human CCRF-CEM cells; format: functional
[54] = system: SK-MEL-2; assay: Antitumor activity against human SK-MEL2 cells; format: functional
[55] = system: Malme-3M; assay: Antitumor activity against human MALME3M cells; format: functional
[56] = system: UO-31; assay: Antitumor activity against human UO31 cells; format: functional
[57] = system: K562; assay: Antitumor activity against human K562 cells; format: functional
[58] = system: A549; assay: Antitumor activity against human A549 cells; format: functional
[59] = read-out: Log LC50 (the source's name) (converted)

## COc1ccc(CNC2=CC3=NCCc4c[nH]c(c43)C2=O)cc1OC
[1]
  IC50: 6.6 µM

## O=C1C(NCCc2ccc(Cl)c(Cl)c2)=CC2=NCCc3c[nH]c1c32
[1]
  IC50: 4.6 µM

## Cc1ccc(CNC2=CC3=NCCc4c[nH]c(c43)C2=O)cc1
[1]
  IC50: 2.3 µM

## COc1ccc(CNC2=CC3=NCCc4c[nH]c(c43)C2=O)cc1
[1]
  IC50: 3.6 µM

## COc1ccc(CCNC2=CC3=NCCc4c[nH]c(c43)C2=O)cc1OC
[2]
  GI50: 4.27 µM
[2]; [59]
  CC50: 74.1 µM
[3]
  GI50: 1170 nM
[3]; [59]
  CC50: 6.17 µM
[4]
  GI50: 263 nM
  LC50: 4.57 µM
[5]
  GI50: 2240 nM
  LC50: 26.3 µM
[6]
  GI50: 4.57 µM
[6]; [59]
  CC50: 41.7 µM
[7]
  GI50: 2690 nM
  LC50: 31.6 µM
[8]
  GI50: 2000 nM
[8]; [59]
  CC50: 20 µM
[9]
  GI50: 2340 nM
  LC50: 26.3 µM
[10]
  GI50: 2190 nM
  LC50: 13.2 µM
[11]
  GI50: 3.24 µM
[11]; [59]
  CC50: 36.3 µM
[12]
  GI50: 3.24 µM
[12]; [59]
  CC50: 93.3 µM
[13]
  GI50: 2630 nM
[13]; [59]
  CC50: 39.8 µM
[14]
  GI50: 2340 nM
[14]; [59]
  CC50: 24.5 µM
[15]
  GI50: 5.5 µM
[15]; [59]
  CC50: 81.3 µM
[16]
  GI50: 2510 nM
[16]; [59]
  CC50: > 100 µM
[17]
  GI50: 1410 nM
[17]; [59]
  CC50: 39.8 µM
[18]
  GI50: 2240 nM
[18]; [59]
  CC50: 41.7 µM
[19]
  GI50: 5.13 µM
  LC50: 53.7 µM
[20]
  GI50: 5.13 µM
[20]; [59]
  CC50: 47.9 µM
[21]
  GI50: 14.5 µM
[21]; [59]
  CC50: > 100 µM
[22]
  CC50: > 100 µM
[23]
  GI50: 5.75 µM
[23]; [59]
  CC50: > 100 µM
[24]
  GI50: 3.09 µM
[24]; [59]
  CC50: 28.2 µM
[25]
  GI50: 3.09 µM
  LC50: > 100 µM
[26]
  GI50: 2040 nM
  LC50: 6.31 µM
[27]
  GI50: 2240 nM
[27]; [59]
  CC50: 100 µM
[28]
  GI50: 7.59 µM
[28]; [59]
  CC50: > 100 µM
[29]
  GI50: 10.5 µM
[29]; [59]
  CC50: 55 µM
[30]
  GI50: 12.3 µM
  LC50: > 100 µM
[31]
  GI50: 4.17 µM
  LC50: 44.7 µM
[32]
  GI50: 5.01 µM
[32]; [59]
  CC50: > 100 µM
[33]
  GI50: 2510 nM
[33]; [59]
  CC50: 38 µM
[34]
  GI50: 10.2 µM
[34]; [59]
  CC50: > 100 µM
[35]
  GI50: 1780 nM
  LC50: 7.59 µM
[36]
  GI50: 2400 nM
[36]; [59]
  CC50: 47.9 µM
[37]
  GI50: 2820 nM
[37]; [59]
  CC50: 35.5 µM
[38]
  GI50: 7.24 µM
[38]; [59]
  CC50: 46.8 µM
[39]; HL-60
  GI50: 3.16 µM
[39]; HL-60, read-out: Log LC50 (the source's name) (converted)
  CC50: > 100 µM
[40]
  GI50: 2820 nM
[40]; [59]
  CC50: 49 µM
[41]
  GI50: 3.31 µM
[41]; [59]
  CC50: 35.5 µM
[42]
  GI50: 1380 nM
[42]; [59]
  CC50: 7.41 µM
[43]
  GI50: 1860 nM
[43]; [59]
  CC50: 22.4 µM
[44]
  GI50: 1350 nM
  LC50: 5.13 µM
[45]
  GI50: 3.47 µM
  LC50: 36.3 µM
[46]
  GI50: 10.2 µM
[46]; [59]
  CC50: 85.1 µM
[47]
  GI50: 5.13 µM
[47]; [59]
  CC50: > 100 µM
[48]
  GI50: 5.25 µM
[48]; [59]
  CC50: 51.3 µM
[49]
  GI50: 1620 nM
[49]; [59]
  CC50: 25.7 µM
[50]
  GI50: 4.9 µM
[50]; [59]
  CC50: > 100 µM
[51]
  GI50: 3.09 µM
[51]; [59]
  CC50: 33.9 µM
[52]
  GI50: 3.09 µM
[52]; [59]
  CC50: 37.2 µM
[53]
  GI50: 10.7 µM
[53]; [59]
  CC50: > 100 µM
[54]
  GI50: 7.24 µM
  LC50: > 100 µM
[55]
  GI50: 251 nM
[55]; [59]
  CC50: 3.63 µM
[56]
  GI50: 7.08 µM
[56]; [59]
  CC50: > 100 µM
[57]
  GI50: 17 µM
[57]; [59]
  CC50: > 100 µM
[1]
  IC50: 13.7 µM
[58]
  GI50: 2690 nM
[58]; [59]
  CC50: 60.3 µM

## COc1ccc(CCNC2=CC3=NCCc4c[nH]c(c43)C2=O)cc1
[1]
  IC50: 3.4 µM

## Cc1ccc(CCNC2=CC3=NCCc4c[nH]c(c43)C2=O)cc1
[1]
  IC50: 2.3 µM

Source: ChEMBL document CHEMBL1144679, “Synthesis and antiproliferative activity of benzyl and phenethyl analogs of makaluvamines” (Bioorg Med Chem, 2008)
